According to patent US20230167437A1, “COMPOSITIONS FOR TREATING CANCER WITH KRAS MUTATIONS AND USES THEREOF” (Aadigen, LLC, priority 2020, published 2023):

How the values were obtained:
Format in all cases: cell-based, human
KRAS 34G>T mutant G12C = test: Indel frequencies at the endogenous target sequences (T7E1 / deep sequencing) after ADGN/Cas9 mRNA/gRNA transfection; settings: for indel frequencies: deep sequencing, 72 hours after transfection, Cas9 mRNA 0.1 μg, gRNA 0.2 μg; for indel editing and disruption of G12C mutant KRAS (FIG. 3A): H23, H358 vs HT29 and PANC1 cells
Protocol: Complex formation with mRNA:gRNA: ADGN peptide/mRNA/gRNA particles were prepared at a 20:1:1 molar ratio. ADGN/Cas9mRNA/sgRNA complexes were prepared at a 20/1/1 molar ratio with 0.5 μg mRNA: 1.5 μg sgRNA and 5% Glucose or DMEM (example for 96 well plates). […] Premixed Cas9 mRNA/gRNA were prepared in sterile water at room temperature in a glass vial (1-4 ml). ADGN-peptide solution was added dropwise (1 drop/sec) under magnetic agitation at 400 rpm to obtain a 1:2 ratio, and incubated for 30 min at room temperature or 37° C. Just before transfection, 150 μl Glucose or DMEM was added and the solution was mixed under magnetic agitation at 400 rpm for 1 minute. Then the solution was incubated for 5 min at 37° C. Then the complexes was ready for cell transfection or IV administration. Prior to IV administration, complexes were diluted in sucrose 5% solution.
(§1) Transfection protocol. The following protocols are reported for 24/48/96 well plate format transfection. Cells should be trypsinized and seeded a day prior transfection Cells were cultured in Dulbecco's Modified Eagle's Medium (DMEM), supplemented with 2 mM glutamine, 1% antibiotics (streptomycin 10,000 μg/mL, penicillin, 10,000 IU/mL) and 10% (w/v) foetal calf serum (FCS), at 37° C. in a humidified atmosphere containing 5% CO2. 96 well plates seeded with 50,000 cells, the day prior transfection, grown to 60-80% confluence and set up to be at around 70% confluence at the day of transfection. Before transfection, cells are washed twice with DMEM (without FBS and pen/strep) (100 μl/well). Cells were then overlaid with 25 μl of complex solution, mixed gently and incubated for 10 min at 37° C.+5% CO2. 50 μl of fresh DMEM (without FBS and Antibiotics) was added and cells were incubated for 2 h at 37° C.+5% CO2 (time of exposure can be adjusted based on sensitivity of the cells). 250 μL of DMEM (containing 10% FCS and 1% antibiotics) were then added without removing the overlay of ADGN peptide/mRNA complexes. Cells were returned to the incubator (37° C., 5% CO2) and analyzed 48 hours to 72 hours post transfection.
(§2) Eight different gRNAs targeting KRAS 34G>T mutant G12C (gRNA34T1, gRNA34T2, gRNA34T3, gRNA34T4, gRNA34T5, gRNA34T6, gRNA34T7 and gRNA34T8) were evaluated on MIA-PACA, H23, H358, H29 and PANC1 cells. Cas9 mRNA (0.1 μg) and gRNA (0.2 μg) were associated with ADGN peptide at molar ratio 20/1 (peptide/nucleic acid). MIA-PACA, H23, H358, PANC1 and HT29 cells were cultured in 48 well plate format and treated with free mRNACas9-gRNA, or ADGN/mRNACas9:gRNA complex. Indel frequencies at the endogenous target sequences was evaluated 72 hours after transfection by either T7E1 method or deep sequencing. Cell proliferation was analyzed over a period of 5 days using CellTiter Glow kits on GlowMax (Promega).
(§3) In order to confirm the specificity of sgRNAs targeting G12V, G12C or G12D KRAS mutation, gRNA35T3 targeting G12V, gRNA34T6 targeting G12C, and gRNA35A5 targeting G12D were evaluated on a large panel of cancer cells harboring different KRAS mutations including SW403, SW480, PANC1, PK-45H, PK-1, MIA-PACA, H23, H358, HT-29, HS-68 and LS513. Cas9 mRNA (0.2 μg) and gRNA (0.4 μg) were associated with ADGN peptide at molar ratio 20/1 (peptide/nucleic acid). Cells were cultured in 48 well plate format and treated with free mRNACas9-gRNA, or ADGN/mRNACas9:gRNA complex. Indel frequencies at the endogenous target sequences was evaluated 72 hours after transfection by either T7E1 method and cell proliferation was analyzed over a period of 5 days using CellTiter Glow kits on GlowMax (Promega).

[1] = system: Mia-PACA, H23 and H358 cells; test: Cell proliferation over 5 days (CellTiter Glow); settings: for inhibition of proliferation or survival (FIG. 3B): H23, H358 vs KRAS WT HT29 or HS-68 and PANC1 cells
Protocol: as §1, §2

[2] = system: G12V, G12D, G12C KRAS mutant cells and WT KRAS cells; test: Specificity of lead sgRNAs on a large panel of cancer cells harboring different KRAS mutations (indel, proliferation); settings: Cas9 mRNA 0.2 μg, gRNA 0.4 μg
Protocol: as §3

“GTAGTTGGAGCTTGTGGCGT (guide GTAGTTGGAGCTTGTGGCGT; sgRNA, chemical modifications not given here, further chemistry not given here) [gRNA34T6, sgRNA target KRAS G12C mutation (34G>T); PAM AGG]” was tested, and the indel frequencies (KRAS 34G>T mutant G12C; H23 cells) was 78%, the indel frequencies (KRAS 34G>T mutant G12C; H358 cells) was 67% and the indel frequency (KRAS 34G>T mutant G12C; KRAS G12C mutated cancer cells) was greater than 70%. For the same sequence, the indel frequencies (KRAS 34G>T mutant G12C; Mia-PACA cells) was 71%, the “indel editing and disruption of G12C mutant KRAS (FIG. 3A)” value (“indel editing and disruption” for short) (KRAS 34G>T mutant G12C; Mia-PACA) was “induced indel editing and efficient disruption of G12C mutant KRAS” and the indel frequency (KRAS 34G>T mutant G12C; Mia-PACA, H23 and H358 cells, T7E1, 72 hours, Cas9 mRNA 0.2 μg, gRNA 0.4 μg) was greater than 70%. For the same sequence, the “fold more efficient than gRNA34T3 (cell proliferation)” value [1] was 3 fold, the “fold more efficient than gRNA34T5 (cell proliferation)” value [1] was 2 fold and the “inhibition of proliferation or survival (FIG. 3B)” value (from here on “inhibition”) ([1]; Mia-PACA) was “specifically inhibit proliferation or survival of Mia-PACA, H23 and H358 cells”. For the same sequence, the cell proliferation blocked ([1]; Mia-PACA, H23 and H358 cells, 5 days) was 75% and the “effect on non-targeted KRAS mutant cells and WT KRAS cells (FIGS. 4A-4B)” value [2] was “does not alter G12D and G12V KRAS mutant cells or WT KRAS cells”.

With “CTTGTGGTAGTTGGAGCTTG (guide CTTGTGGTAGTTGGAGCTTG; chemistry not given here) [gRNA34T1, sgRNA target KRAS G12C mutation (34G>T); PAM TGG]” the indel frequencies (KRAS 34G>T mutant G12C; H23 cells) was 41%, the indel frequencies (KRAS 34G>T mutant G12C; H358 cells) was 29% and the indel frequencies (KRAS 34G>T mutant G12C; Mia-PACA cells) was 34%. The “indel editing and disruption” value (KRAS 34G>T mutant G12C; Mia-PACA) was “induced indel editing and efficient disruption of G12C mutant KRAS” and the “inhibition” value ([1]; Mia-PACA) was “specifically inhibit proliferation or survival of Mia-PACA, H23 and H358 cells”.

In the case of “TTG TGG TAG TTG GAG CTT G (guide TTGTGGTAGTTGGAGCTTG; sgRNA, chemical modifications not given here, further chemistry not given here) [gRNA34T5, sgRNA target KRAS G12C mutation (34G>T); PAM TGG]”, the indel frequencies (KRAS 34G>T mutant G12C; H23 cells) is reported as 68%, the indel frequencies (KRAS 34G>T mutant G12C; H358 cells) is reported as 67% and the indel frequencies (KRAS 34G>T mutant G12C; Mia-PACA cells) is reported as 75%. The “indel editing and disruption” value (KRAS 34G>T mutant G12C; Mia-PACA) was “induced indel editing and efficient disruption of G12C mutant KRAS” and the “inhibition” value ([1]; Mia-PACA) was “specifically inhibit proliferation or survival of Mia-PACA, H23 and H358 cells”.

With “GTT GGA GCT TGT GGC GT (guide GTTGGAGCTTGTGGCGT; chemistry not given here) [gRNA34T3, sgRNA target KRAS G12C mutation (34G>T); PAM AGG]” the indel frequencies (KRAS 34G>T mutant G12C; H23 cells) was 48%, the indel frequencies (KRAS 34G>T mutant G12C; H358 cells) was 37% and the indel frequencies (KRAS 34G>T mutant G12C; Mia-PACA cells) was 51%. For the same sequence, the “indel editing and disruption” value (KRAS 34G>T mutant G12C; Mia-PACA) was “induced indel editing and efficient disruption of G12C mutant KRAS” and the “inhibition” value ([1]; Mia-PACA) was “specifically inhibit proliferation or survival of Mia-PACA, H23 and H358 cells”.
